Experimental findings from ChEMBL document CHEMBL4665708, “Generation of Stilbene Antimicrobials against Multiresistant Strains of Staphylococcus aureus through Biotransformation by the Enzymatic Secretome of Botrytis cinerea” (J Nat Prod, 2020) are described below.

For data set [1], the system named is Staphylococcus aureus. In words: Antimicrobial activity against methicillin-resistant Staphylococcus aureus ATCC 33591 after 24 hrs by broth microdilution method. It is filed as functional.
Data set [2] concerns Pseudomonas aeruginosa. In words: Antimicrobial activity against Pseudomonas aeruginosa ATCC 27853 at 256 ug/ml after 24 hrs by broth microdilution assay. It is filed as functional, organism-based. Particulars: dose 256.0 µg/ml. Background: In broth dilution the organism is exposed to a series of concentrations in liquid medium.
For data set [3], the system named is Staphylococcus aureus. Briefly: Antimicrobial activity against vancomycin-resistant Staphylococcus aureus 510 after 24 hrs by broth microdilution method. It is filed as functional.
Data set [4] relates to HepG2. Briefly: Cytotoxicity against human HepG2 cells after 3 days by microplate reader analysis. It is filed as cell-based. Particulars: HepG2, 72 h.
Data set [5] deals with MCF-10A. Briefly: Cytotoxicity against human MCF-10A cells after 3 days by microplate reader analysis. Format: cell-based. To be noted: 72 h.
The nature of data set [6]: Selectivity ratio of IC50 for human MCF-10A cells to MIC for methicillin-resistant Staphylococcus aureus ATCC 33591. Format: toxicity.
Data set [7] can be described thus: Selectivity ratio of IC50 for human MCF-10A cells to MIC for vancomyicin-resistant Staphylococcus aureus 510. It is filed as toxicity.

In brackets after ≈: the same amount, converted by molar mass. Activity calls are given as the source filed them. No cut-off for these calls is given here. Some results are limits rather than exact numbers.

Broadly, the MIC is the lowest concentration found to suppress growth. A word on the IC50: it is the point on the concentration scale where inhibition reaches its midpoint. A low value points to greater potency.

In turn, `COc1cc(/C=C/c2ccc(OC(c3cc(OC)cc(OC)c3)C(O)c3ccc(O)cc3)cc2)cc(OC)c1` (centres undefined) returned an MIC in data set [1] of more than 242 µM. The outcome in data set [2] was inactive.
For `COC(c1ccc(O)cc1)[C@@H]1c2cc(O)cc(O)c2[C@H](c2ccc(O)cc2)[C@H]1c1cc(O)cc(O)c1` (some centres undefined) the same measures were more than 263 µM and “inactive”.
In the case of `CN[C@H](CC(C)C)C(=O)N[C@H]1C(=O)N[C@@H](CC(N)=O)C(=O)N[C@H]2C(=O)N[C@H]3C(=O)N[C@H](C(=O)N[C@H](C(=O)O)c4cc(O)cc(O)c4-c4cc3ccc4O)[C@H](O)c3ccc(c(Cl)c3)Oc3cc2cc(c3O[C@@H]2O[C@H](CO)[C@@H](O)[C@H](O)[C@H]2O[C@H]2C[C@](C)(N)[C@H](O)[C@H](C)O2)Oc2ccc(cc2Cl)[C@H]1O` [VANCOMYCIN], the MIC in data set [3] is 22 µM (≈ 31.9 µg/mL); in data set [1] it was 0.69 µM (≈ 1 µg/mL). Further, the result in data set [2] was inactive.
Turning to `COc1cc(OC)cc(C(C(OC)OC)C(c2cc(OC)cc(OC)c2)C(c2ccc(O)cc2)c2ccc(O)cc2)c1` (centres undefined), the IC50 in data set [4] and in data set [5] was 19 µM throughout. In data set [1], this compound returned an MIC of 14 µM (≈ 8.05 µg/mL). For the same compound, in data set [2], the result was inactive. In data set [6], the selectivity ratio turned out to be 1.4.
Compound `COc1cc(OC)cc([C@@H]2[C@@H](c3ccc(O)cc3)c3c(OC)cc(OC)cc3[C@H]2[C@@H](O)c2ccc(O)cc2)c1` displayed an MIC in data set [1] of 121 µM (≈ 64 µg/mL). The result in data set [2] was inactive.
Consider `COc1cc(OC)cc([C@@H]2[C@@H](c3cc(OC)cc(OC)c3)[C@H](c3ccc(O)cc3)O[C@@H]2c2ccc(O)cc2)c1`, for which the IC50 in data set [4] and in data set [5] was more than 95 µM in each case. In data set [1], the MIC came to 121 µM (≈ 64 µg/mL). Further, in data set [2], the outcome was inactive.
With `COc1cc(OC)cc([C@H]2c3cc(/C=C/c4cc(O)cc(O)c4)ccc3O[C@@H]2c2ccc(O)cc2)c1` (relative stereo), the MIC in data set [3] and in data set [1] was 4 µM (≈ 1.93 µg/mL) each time. Also, the concentration for half-maximal inhibition (IC50) in data set [4] was 27 µM; in data set [5], 29 µM. For the same compound, the outcome in data set [2] was inactive. The selectivity ratio in data set [7] and in data set [6] was 7.2 each time.
On to `Oc1ccc([C@H]2Oc3ccc(/C=C/c4cc(O)cc(O)c4)cc3[C@@H]2c2cc(O)cc(O)c2)cc1` (relative stereo), for which the IC50 in data set [4] and in data set [5] was 48 µM each time. Also, the MIC in data set [1] amounted to 35 µM (≈ 15.9 µg/mL). The result in data set [2] was inactive. Moreover, in data set [6], the selectivity ratio amounted to 1.4.
With `COc1cc(OC)c2c(c1)[C@H]1[C@H](c3ccc(O)cc3)c3c(OC)cc(OC)cc3[C@H]1[C@@H]2c1ccc(O)cc1`, the IC50 was found to be 22 µM in data set [4] and 24 µM in data set [5]. In data set [1], the minimum inhibitory concentration (MIC) was found to be 31 µM (≈ 15.8 µg/mL). Also, the outcome in data set [2] was inactive. Also, the selectivity ratio in data set [6] came to 0.7.
The matching figures for `COc1cc(OC)cc(C(Oc2ccc(/C=C/c3cc(O)cc(O)c3)cc2)C(OC)c2ccc(O)cc2)c1` (centres undefined): 29 µM, 23 µM, 62 µM (≈ 31.9 µg/mL), “inactive” and 0.4.
`COc1cc(OC)cc([C@@H]2[C@@H](c3ccc(O)cc3)c3c(O)cc(O)cc3[C@H]2[C@H](OC)c2ccc(O)cc2)c1`: the MIC in data set [1] is more than 249 µM. In addition, in data set [2], the result was inactive.
Turning to `COc1cc(OC)cc([C@@H](C(OC)OC)[C@@H](c2cc(O)cc(O)c2)C(c2ccc(O)cc2)c2ccc(O)cc2)c1`, the MIC in data set [1] is more than 234 µM. For the same compound, in data set [2], the result was inactive.
For `COc1cc(OC)cc([C@@H]2[C@@H](c3ccc(O)cc3)c3c(OC)cc(OC)cc3[C@H]2[C@H](O)c2ccc(O)cc2)c1` the same measures were 121 µM (≈ 64 µg/mL) and “inactive”.
The matching figures for `COc1cc(OC)cc([C@@H]2[C@@H](c3ccc(O)cc3)c3c(O)cc(O)cc3[C@H]2[C@@H](OC)c2ccc(O)cc2)c1`: more than 249 µM and “inactive”.
For `COc1cc(OC)cc([C@@H]2[C@@H](c3ccc(O)cc3)c3c(O)cc(O)cc3[C@H]2C(O)c2ccc(O)cc2)c1` (some centres undefined) the same measures were more than 256 µM and “inactive”.
In data set [1], `COc1cc(/C=C/c2ccc(O)cc2)cc(OC)c1` [PTEROSTILBENE] displayed an MIC of 31 µM (≈ 7.95 µg/mL). Besides, the outcome in data set [2] was inactive.
The matching figures for `Oc1ccc(/C=C/c2cc(O)cc(O)c2)cc1` [RESVERATROL]: more than 561 µM and “inactive”.
Turning to `COc1cc(OC)cc([C@@H]2[C@@H](c3ccc(O)cc3)c3c(OC)cc(OC)cc3[C@H]2[C@@H](OC)c2ccc(O)cc2)c1`, the IC50 in data set [4] came out at 15 µM; in data set [5], 17 µM. In data set [1], this compound had an MIC of 15 µM (≈ 8.14 µg/mL). In data set [2], the result was inactive. The selectivity ratio in data set [6] came to 1.1.
`COc1cc(OC)c2c(c1)[C@@H]([C@@H](OC)c1ccc(O)cc1)[C@H](c1cc(O)cc(O)c1)[C@H]2c1ccc(O)cc1` had an MIC in data set [1] of more than 249 µM. In data set [2], the outcome was inactive.
The matching figures for `Oc1ccc([C@@H]2c3c(O)cc(O)cc3[C@H]3[C@H](c4ccc(O)cc4)c4c(O)cc(O)cc4[C@@H]23)cc1` [PALLIDOL]: more than 282 µM and “inactive”.
For `COc1cc(/C=C/c2ccc3c(c2)[C@H](c2cc(O)cc(O)c2)[C@@H](c2ccc(O)cc2)O3)cc(OC)c1`, the MIC amounted to 2 µM (≈ 0.965 µg/mL) in data set [3] and 22 µM (≈ 10.6 µg/mL) in data set [1]. Further, the concentration for half-maximal inhibition (IC50) in data set [4] is 27 µM; in data set [5] it was 66 µM. Besides, the outcome in data set [2] was inactive. Besides, the selectivity ratio in data set [7] and in data set [6] was 32 in each case.
On to `COc1cc(/C=C/c2ccc3c(c2)[C@H](c2cc(OC)cc(OC)c2)[C@@H](c2ccc(O)cc2)O3)cc(OC)c1`, for which the results for the half-maximal inhibitory concentration (IC50) in data set [4] and in data set [5] were 29 µM and 25 µM, respectively. This compound showed a minimum inhibitory concentration (MIC) in data set [1] of more than 251 µM. In addition, the outcome in data set [2] was inactive. Moreover, the selectivity ratio in data set [6] was less than 0.1.
As for `COc1cc(/C=C/c2ccc(OC(c3cc(O)cc(O)c3)C(OC)c3ccc(O)cc3)cc2)cc(OC)c1` (racemic), the figures for the MIC in data set [3] and in data set [1] were 4 µM (≈ 2.06 µg/mL) and 8 µM (≈ 4.12 µg/mL), respectively. Further, the IC50 in data set [4] was 23 µM; in data set [5], 27 µM. Besides, in data set [2], the outcome was inactive. The selectivity ratio in data set [7] was 6.9; in data set [6], 3.4.
For the compound `COc1cccc2c1C(=O)c1c(O)c3c(c(O)c1C2=O)C[C@@](O)(C(=O)CO)C[C@@H]3O[C@H]1C[C@H](N)[C@H](O)[C@H](C)O1` [DOXORUBICIN], the concentration for half-maximal inhibition (IC50) in data set [4] was found to be 1.18 µM; in data set [5], 0.31 µM.
